Reference: PMC7288138, “Development of Novel Analogs of the Monocarboxylate Transporter Ligand FACH and Biological Validation of One Potential Radiotracer for Positron Emission Tomography (PET) Imaging” (Molecules, 2020)

Target: T1, MCT1 (monocarboxylate transporter 1) (Rattus norvegicus, UniProt P53987)
T1 construct: gene Slc16a1
T1 sequence (P53987 1-494): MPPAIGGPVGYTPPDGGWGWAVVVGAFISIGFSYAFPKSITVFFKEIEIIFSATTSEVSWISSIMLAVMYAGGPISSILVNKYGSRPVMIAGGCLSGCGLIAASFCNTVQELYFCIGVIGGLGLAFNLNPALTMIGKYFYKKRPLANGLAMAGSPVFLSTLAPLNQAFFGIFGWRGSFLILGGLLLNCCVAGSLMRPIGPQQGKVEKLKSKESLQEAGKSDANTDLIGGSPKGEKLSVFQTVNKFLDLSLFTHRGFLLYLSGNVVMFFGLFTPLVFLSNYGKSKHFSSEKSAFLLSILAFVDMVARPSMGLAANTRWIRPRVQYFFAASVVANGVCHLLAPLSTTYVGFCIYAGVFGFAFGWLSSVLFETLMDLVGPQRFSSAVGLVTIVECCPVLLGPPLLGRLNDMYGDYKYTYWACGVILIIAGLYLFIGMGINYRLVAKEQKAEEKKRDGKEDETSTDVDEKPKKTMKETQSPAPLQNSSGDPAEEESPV
Assay: […]lactate uptake inhibition in RBE4 rat brain endothelial cells (only MCT1 isoform expressed)
Assay type: cell-based

Row | IC50 [µM] | Structure (SMILES)
1 | 0.118 | CCCN(c1ccc(/C=C(\C#N)C(=O)O)c(OC)c1)c1cccc(F)n1 [compound 1, (E)-2-Cyano-3-(4-((6-fluoropyridin-2-yl)(propyl)amino)-2-methoxyphenyl)acrylic Acid]
2 | 0.274 | COc1cc(N(c2ccccc2)c2cccc(F)n2)ccc1/C=C(\C#N)C(=O)O [compound 2, (E)-2-Cyano-3-(4-((6-fluoropyridin-2-yl)(phenyl)amino)-2-methoxyphenyl)acrylic Acid]
